# Measured values from patent US6277860A, “Furopyridine antibacterials” (Pfizer Inc, priority 1999, dated 2001).
# Read-outs that look alike come from different tables or passages of the source.
# Experiments:
# [1] = tested on: Enterococcus faecalis 03A1069; test: MIC by serial agar dilution method, Enterococcus faecalis 03A1069; type: cell-based
# Method: (§1) Other strains which have similar characteristics of resistance to drugs may be also used. Such strains are usually available for those skilled in the art.
# (§2) MIC: minimum inhibitory concentration; for more detail see below.
# (§3) Each strain of S. aureus 01A1105, E faecalis 03A1069 and E. coli 51A0266 is inoculated and grown in tube containing 10 ml of Trypticase Soy Broth (TSB, DIFCO), overnight at 37° C. shaking at 200 rpm. The cell-concentration of the culture is adjusted by dilution with TSB and 50% aqueous glycerol to an optical density of 1.4 at 600 nm (light path=1 cm) and a final glycerol concentration of 20%. The diluted culture is dispensed to cryotubes, 1 ml per vial, and stored at -80° C. until its use.
# (§4) Each stock culture, 200 μl for S. aureus and E. coli and 1 ml for E. faecalis, is added to 100 ml of Mueller Hinton medium (DIFCO), mixed and poured into an assay plate. The stock culture (1 ml) of S. pyogenes is inoculated into a tube containing 20 ml TSB and 1.0 ml defibrinated horse blood (Nippon Bio-Supply Center), and incubated statically at 37° C. for 24 hours. The incubated culture (5 ml) and 5 ml of sheep blood (Nippon Bio-Supply Center) were added to Mueller Hinton medium (100 ml), mixed and poured into an assay plate.
# (§5) For determination of minimum inhibitory concentration (MIC), serial agar dilution method is used with same incubation condition as described above. The growth of bacteria is monitored by measuring the optical density at 655 nm.
# (§6) The compound prepared in Example 1(2R*,3R*-2,3-dihydro-2-[(E)-2-buten-2-yl]-4-hydroxy-3-methyl-5-phenylfuro[2,3-b]pyridine-3-carbaldehyde ) was tested according to the assay method described in pages 12 to 14.
# S. pneumoniae 02J1095 = test: MIC by serial agar dilution method, S. pneumoniae 02J1095; type: cell-based, Streptococcus pneumoniae
# Method: as §2, §5, §6
# E. coli 51A1051 = test: MIC by serial agar dilution method, E. coli 51A1051; type: cell-based, Escherichia coli
# Method: as §2, §5, §6
# S. pneumoniae 02J1046 = test: MIC by serial agar dilution method, S. pneumoniae 02J1046; type: cell-based, Streptococcus pneumoniae
# Method: as §2, §5, §6
# [2] = tested on: Moraxella catarrhalis 87A1055; test: MIC by serial agar dilution method, Moraxella catarrhalis 87A1055; type: cell-based
# Method: as §2, §5, §6
# various bacteria = test: Antibacterial assay, overall result in words; type: cell-based
# Method: Sample solution is loaded and dried on a paper disk (i.d. 6 mm, thin, Advantec) which is placed on the assay plate and incubated overnight at 37° C. The activity is determined by measuring the size of growth-inhibition zone around the disk. As controls, vancomycin 1 μg and tetracycline 1 μg disks are used.
# as §5, §6
# S. pyogenes 02C1068 = test: MIC by serial agar dilution method, S. pyogenes 02C1068; type: cell-based; settings: for MIC: Streptococcus pyogenes
# Method: as §1, §2
# The strain of S. pyogenes 02C1068 was inoculated and grown in tubes, containing 10 ml of TSB with 0.5 ml of lysed horse blood (Nippon Bio-Supply Center), statically for 24 hours at 37° C. After the incubation, the cells were centrifuged and resuspended in a mixture of 50% aqueous glycerol (4 ml) and defibrinated sheep blood (6 ml, Nippon Bio-Supply Center). The resulting cell-suspension was dispensed to cryotubes, 1 ml per vial, and stored at -80° C. until its use.
# as §4, §5, §6
# E. coli 51A1073 = test: MIC by serial agar dilution method, E. coli 51A1073; type: cell-based, Escherichia coli
# Method: as §2, §5, §6
# E. coli 51A1074 = test: MIC by serial agar dilution method, E. coli 51A1074; type: cell-based, Escherichia coli
# Method: as §2, §5, §6
# S. aureus 01A1105 = test: MIC by serial agar dilution method, S. aureus 01A1105; type: cell-based, Staphylococcus aureus
# Method: as §1, §2, §3, §4, §5, §6
# [3] = tested on: Staphylococcus aureus 01A1095; test: MIC by serial agar dilution method, Staphylococcus aureus 01A1095; type: cell-based
# Method: as §2, §5, §6
# S. hemolyticus 01E1006 = test: MIC by serial agar dilution method, S. hemolyticus 01E1006; type: cell-based
# Method: as §2, §5, §6
# [4] = tested on: Streptococcus agalactiae 02B1023; test: MIC by serial agar dilution method, Streptococcus agalactiae 02B1023; type: cell-based
# Method: as §2, §5, §6
# S. aureus 01A1120 = test: MIC by serial agar dilution method, S. aureus 01A1120; type: cell-based, Staphylococcus aureus
# Method: as §2, §5, §6
# S. pyogenes 02C1079 = test: MIC by serial agar dilution method, S. pyogenes 02C1079; type: cell-based
# Method: as §2, §5, §6
# E. coli 51A1075 = test: MIC by serial agar dilution method, E. coli 51A1075; type: cell-based, Escherichia coli
# Method: as §2, §5, §6
# Escherichia coli 51A0266 = test: MIC by serial agar dilution method, Escherichia coli 51A0266; type: cell-based
# Method: as §1, §2, §3
# as §4, with “The incubated culture (5 ml) and 5 ml of sheep blood (Nippon Bio-Supply Center) were added to Mueller Hinton medium (100 ml), mixed and poured into an assay plate.” left out
# For determination of minimum inhibitory concentration (MIC), serial agar dilution method is used with same incubation condition as described above. The growth of bacteria is monitored by measuring the optical density at 655 nm. […]
# [5] = tested on: Haemophilus influenzae 54A0085; test: MIC by serial agar dilution method, Haemophilus influenzae 54A0085; type: cell-based
# Method: as §2, §5, §6
# H. influenzae 54A0131 = test: MIC by serial agar dilution method, H. influenzae 54A0131; type: cell-based, Haemophilus influenzae
# Method: as §2, §5, §6
# [6] = Storeptococcus pyogenes 02C1068, antibiotic resistance of strain, read-out: MIC (minimum inhibitory concentration)
# [7] = Staphylococcus aureus 01A1105, antibiotic resistance of strain, read-out: MIC (minimum inhibitory concentration)
# [8] = Enterococcus faecalis, 03A1069, read-out: MIC (minimum inhibitory concentration)
# [9] = Staphylococcus aureus, 01A1105, read-out: MIC (minimum inhibitory concentration)
molecule,measurement,setting,value
"C/C=C(\C)[C@H]1Oc2ncc(-c3ccccc3)c(O)c2[C@@]1(C)C=O (relative stereo) [Example 1, 2R*,3R*-2,3-dihydro-2-[(E)-2-buten-2-yl]-4-hydroxy-3-methyl-5-phenylfuro[2,3-b]pyridine-3-carbaldehyde]",minimum inhibitory concentration (MIC),"[1]; Enterococcus faecalis 03A1069, multidrug resistant",100
same,minimum inhibitory concentration (MIC),S. pneumoniae 02J1095,6.25
same,minimum inhibitory concentration (MIC),E. coli 51A1051,> 100
same,minimum inhibitory concentration (MIC),S. pneumoniae 02J1046,25
same,minimum inhibitory concentration (MIC),[2],50
same,antibacterial activity against various bacteria,various bacteria,remarkable antibacterial activity against various bacteria
same,minimum inhibitory concentration (MIC),"S. pyogenes 02C1068; S. pyogenes 02C1068, multidrug resistant",6.25
same,minimum inhibitory concentration (MIC),E. coli 51A1073,> 100
same,minimum inhibitory concentration (MIC),E. coli 51A1074,> 100
same,minimum inhibitory concentration (MIC),"S. aureus 01A1105; S. aureus 01A1105, multidrug resistant",25
same,minimum inhibitory concentration (MIC),[3],100
same,minimum inhibitory concentration (MIC),S. hemolyticus 01E1006,100
same,minimum inhibitory concentration (MIC),[4],25
same,minimum inhibitory concentration (MIC),S. aureus 01A1120,25
same,minimum inhibitory concentration (MIC),S. pyogenes 02C1079,12.5
same,minimum inhibitory concentration (MIC),E. coli 51A1075,100
same,minimum inhibitory concentration (MIC),Escherichia coli 51A0266; Escherichia coli 51A0266,> 100
same,minimum inhibitory concentration (MIC),[5],50
same,minimum inhibitory concentration (MIC),H. influenzae 54A0131,100
CC[C@H]1OC(=O)[C@H](C)[C@@H](O[C@H]2C[C@@](C)(OC)[C@@H](O)[C@H](C)O2)[C@H](C)[C@@H](O[C@@H]2O[C@H](C)C[C@H](N(C)C)[C@H]2O)[C@](C)(O)C[C@@H](C)CN(C)[C@H](C)[C@@H](O)[C@]1(C)O [azithromycin],MIC,"[1]; Enterococcus faecalis 03A1069, antibiotic resistance of strain, read-out: MIC (minimum inhibitory concentration)",> 256 µg/mL
same,MIC,S. pyogenes 02C1068; [6],> 16 µg/mL
CO/N=C(\C(=O)N[C@@H]1C(=O)N2C(C(=O)O)=C(COC(C)=O)CS[C@H]12)c1csc(N)n1 [cefataxime],MIC,S. aureus 01A1105; [7],> 256 µg/mL
CC(=O)OCC1=C(C(=O)O)N2C(=O)[C@@H](NC(=O)Cc3cccs3)[C@H]2SC1 [cephalothin],MIC,[1]; [8],128 µg/mL
O=C(N[C@H](CO)[C@H](O)c1ccc([N+](=O)[O-])cc1)C(Cl)Cl [chloramphenicol],MIC,[1]; [8],16 µg/mL
O=C(O)c1cn(C2CC2)c2cc(N3CCNCC3)c(F)cc2c1=O [ciprofloxacin],MIC,S. aureus 01A1105; [9],> 32 µg/mL
CCC[C@@H]1C[C@@H](C(=O)N[C@@H]([C@H]2O[C@H](SC)[C@H](O)[C@@H](O)[C@H]2O)[C@H](C)Cl)N(C)C1 [clindamycin],MIC,S. pyogenes 02C1068; [6],> 64 µg/mL
same,MIC,S. aureus 01A1105; [7],> 256 µg/mL
CC[C@H]1OC(=O)[C@H](C)[C@@H](O[C@H]2C[C@@](C)(OC)[C@@H](O)[C@H](C)O2)[C@H](C)[C@@H](O[C@@H]2O[C@H](C)C[C@H](N(C)C)[C@H]2O)[C@](C)(O)C[C@@H](C)C(=O)[C@H](C)[C@@H](O)[C@]1(C)O [erythromycin],MIC,"S. pyogenes 02C1068; 02C1068, read-out: MIC (minimum inhibitory concentration)",> 64 µg/mL
same,MIC,S. aureus 01A1105; [9],> 256 µg/mL
COc1cccc(OC)c1C(=O)N[C@@H]1C(=O)N2[C@@H]1SC(C)(C)[C@@H]2C(=O)O [methicillin],MIC,S. aureus 01A1105; [7],> 256 µg/mL
CC1(C)S[C@@H]2[C@H](NC(=O)Cc3ccccc3)C(=O)N2[C@H]1C(=O)O [penicillin G],MIC,[1]; [8],6 µg/mL
same,MIC,S. aureus 01A1105; [9],64 µg/mL
CN(C)C1C(=O)C(C(N)=O)=C(O)C2(O)C(=O)C3=C(O)c4c(O)cccc4C(C)(O)C3CC12 (stereo not drawn) [tetracycline],MIC,S. aureus 01A1105; [9],128 µg/mL
"CN[C@H](CC(C)C)C(=O)N[C@H]1C(=O)N[C@@H](CC(N)=O)C(=O)N[C@H]2C(=O)N[C@H]3C(=O)N[C@H](C(=O)N[C@H](C(=O)O)c4cc(O)cc(O)c4-c4cc3ccc4O)[C@H](O)c3ccc(c(Cl)c3)Oc3cc2cc(c3O[C@@H]2O[C@H](CO)[C@@H](O)[C@H](O)[C@H]2O[C@H]2C[C@](C)(N)[C@H](O)[C@H](C)O2)Oc2ccc(cc2Cl)[C@H]1O [vancomycin, reference compound]",MIC,[1]; [8],24 µg/mL
same,MIC,"Escherichia coli 51A0266; Escherichia coli, 51A0266, read-out: MIC (minimum inhibitory concentration)",> 128 µg/mL
gentamicin,MIC (minimum inhibitory concentration),"S. aureus 01A1105; Staphylococcus aureus 01A1105, antibiotic resistance of strain",64 µg/mL
